Results as given in PubChem BioAssay (NCI).
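Briefly, cells in 96-well plates were exposed to five compound concentrations for 48 h, and endpoints were estimated by linear interpolation. TGI: concentration producing complete growth inhibition.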

Key:
Test in all cases: growth of human tumour cells (NCI), 48 h
[1] = test system: COLO 205 colon
[2] = test system: EKVX NSCLC
[3] = test system: CAKI-1 renal
[4] = test system: TK-10 renal
[5] = test system: DLD-1 colon
[6] = test system: SF-268 CNS
[7] = test system: MOLT-4 leukemia
[8] = test system: ACHN renal
[9] = test system: A549 NSCLC
[10] = test system: UO-31 renal
[11] = test system: SK-MEL-5 melanoma
[12] = test system: NCI-H460 lung
[13] = test system: IGROV1 ovarian
[14] = test system: LXFL 529 NSCLC
[15] = test system: LOX IMVI melanoma
[16] = test system: MCF7 breast
[17] = test system: PC-3 prostate
[18] = test system: T-47D breast

Compound | TGI [1] [µM] | TGI [2] [µM] | TGI [3] [µM] | TGI [4] [µM] | TGI [5] [µM] | TGI [6] [µM] | TGI [7] [µM] | TGI [8] [µM] | TGI [9] [µM] | TGI [10] [µM] | TGI [11] [µM] | TGI [12] [µM] | TGI [13] [µM] | TGI [14] [µM] | TGI [15] [µM] | TGI [16] [µM] | TGI [17] [µM] | TGI [18] [µM]
COC1=CC(=O)c2ccccc2C1(C)C1=NC(C)(C)CO1 (stereo not drawn) | > 100 | > 100 | > 100 | > 100 | > 100 | > 100 | > 100 | > 100 | > 100 | > 100 | > 100 | > 100 | > 100 | > 100 | – | – | – | –
COCC12CC(CC1=O)C1C2ON2c3ccccc3C(=O)C12c1ccccc1 (stereo not drawn) | > 100 | > 100 | – | – | > 100 | > 100 | > 100 | > 100 | > 100 | > 100 | > 100 | – | > 100 | > 100 | – | – | – | –
O=C1C=C(Nc2ccccc2C(=O)CC(=O)C(=O)Nc2ccc(Cl)c(Cl)c2)c2ccccc2C1=O | > 100 | – | > 100 | – | > 100 | > 100 | > 100 | > 100 | > 100 | > 100 | 20.4 | > 100 | > 100 | – | – | – | – | –
COc1ccc(C2S/C(=C\c3cccc(O)c3)C(=O)N2NC(=O)Cc2ccccc2)cc1 (stereo not drawn) | > 100 | – | > 100 | > 100 | > 100 | > 100 | > 100 | > 100 | > 100 | > 100 | > 100 | > 100 | > 100 | > 100 | > 100 | – | – | –
CN(C)/C=N/S(=O)(=O)c1nn2c(C=O)c(-c3ccc([N+](=O)[O-])cc3)nc2s1 | > 34.3 | 58.7 | 7.13 | 21.6 | – | > 72.9 | > 21.8 | 10.5 | > 100 | 13.2 | 17.4 | > 85.9 | 17.6 | – | 27 | > 42 | > 51.9 | > 45.4
COc1ccccc1OC(=O)/C=C/c1ccccc1 | > 100 | > 100 | > 100 | > 100 | – | > 100 | > 100 | > 100 | > 100 | > 100 | > 100 | > 100 | > 100 | – | > 100 | > 100 | > 100 | > 100
CCOC(=O)C(Cc1cn(S(=O)(=O)c2ccc(C)cc2)cn1)P(=O)(OCC)OCC (stereo not drawn) | > 100 | > 100 | > 100 | > 100 | – | > 100 | > 100 | > 100 | > 100 | > 100 | > 100 | > 100 | > 100 | – | > 100 | > 100 | > 100 | > 100
COc1ccc(Nc2nc3ccccc3nc2C(=O)O)cc1 | > 100 | > 100 | > 100 | > 100 | – | > 100 | > 100 | > 100 | > 100 | > 100 | > 100 | > 100 | > 100 | – | > 100 | > 100 | > 100 | > 100
COc1ccc(C(=O)c2ccc(-n3c4ccccc4c4ccc5c(c43)C(=O)C=CC5=O)cc2)cc1 | 9.34 | 4.32 | 0.366 | 3.76 | – | 2.33 | > 100 | 1.8 | 10.8 | 1.07 | 12.9 | 19.3 | 10.4 | – | 4.31 | 2.6 | 3.3 | > 100
CC(=O)O/C=C\OC1CCCC1 | > 100 | > 100 | > 100 | > 100 | – | > 100 | > 100 | > 100 | > 100 | > 100 | > 100 | > 100 | > 100 | – | > 100 | > 100 | > 100 | > 100
N#CC(c1ccccc1)(c1ccccc1)[C@@H](c1ccccc1)[C@H](Cc1ccccc1)NS(=O)(=O)c1ccccc1 | > 100 | > 100 | > 100 | > 100 | – | > 100 | > 100 | > 100 | > 100 | > 100 | > 100 | > 100 | > 100 | – | > 100 | > 100 | > 100 | > 100
COc1ccc2c(c1)c1c3c(ccc4ncn2c43)N(CCN(C)C)CCN=1 | 1.83 | 2.71 | 9.13 | 5.73 | – | 4.24 | 1.5 | 5.39 | 2.04 | 1.74 | 2.31 | 0.76 | 4.37 | – | 1.53 | 1.91 | 1.62 | 6.05
